The record followed here is patent US8486962B2, “Antifungal agents” (F2G Ltd., priority 2005, dated 2013).

In brackets after ≈: the same amount, converted by molar mass.

The term MIC denotes the lowest concentration that inhibits growth of the organism.

What all share (type): cell-based
One experiment concerns Aspergillus flavus. Put plainly: MIC, YAG medium, Aspergillus flavus. The conditions noted are these: YAG medium; for MIC: Aspergillus flavus, read-out: MIC A Flavus 01. Here is the method: (§1) Measurement of Minimum Inhibitory Concentrations (MICs)
(§2) Between 1 and 5 mgs of compound were accurately weighed out into a sterile Eppendorf tube. The compound was dissolved in DMSO to give a solution containing 5 mg/ml. Tubes were stored at −20° C. until required.
(§3) On the day of testing thawed solutions were vortex mixed to ensure homogeneity. 30 μl of solution was removed and added to 570 μl of sterile water in a separate sterile Eppendorf. The thoroughly mixed solution was used to prepare a series of doubling dilutions in water, in a deep well plate. Eleven replicate plates were prepared using a Minitrak by aspirating 20 μl from each well into eleven clear polystyrene 96 well plates.
(§4) Spores of Aspergillus spp (Aspergillus fumigatus, Aspergillus terreus, Aspergillus niger and Aspergillus flavus) were harvested from cultures grown on Sabarauds agar for 5 days, and resuspended in PBS/Tween 80 to approx 1×10^7 cfu/ml Other filamentous fungi (Fusarium solani, Scedosporium spp., Trichophyton spp., Absidia corymbifera), were grown on Sabarauds agar for 2-10 days and spores/hyphae resuspended in PBS/Tween to give approx 1×10^7 cfU/ml. Candida species (Candida albicans, Candida glabrata, Candida krusei, Candida parapsilosis and Candida tropicalis) were grown on Sabarauds agar, cells were harvested from the agar using a sterile loop and resuspended in PBS/Tween 80 to approx 1×10^6 cfu/ml. Each organism suspension was diluted in RPMI medium, containing 2% glucose and 0.135M MOPS buffer (pH7.0) to 2×10^4 cfu/ml for Aspergillus spp and other filamentous fungi and 2×10^3 cfu/ml for yeast. 80 μl of an organism suspension was added to each well of the plate containing drug dilutions.
(§5) This produced MIC plates with a drug range 50-0.05 mg/L and organism inocula of 1-2×10^4 cfu/ml for Aspergillus spp and other filamentous fungi and 1-2×10^3 cfu/ml for yeasts. All plates were incubated for 24-48 hrs at 35° C. Growth was assessed by monitoring the optical density at 485 nm for each well. The MIC of a compound is the lowest drug concentration that inhibits growth of an organism by >80% compared with a drug free control. MICs are recorded as mg/L. Other growth media can be used for susceptibility testing, and the activity of the described compounds can also be assessed in a medium comprising, 1% glucose, 1% ammonium chloride and 0.5% yeast extract (YAG medium). To perform MIC tests in this medium, dilutions of compounds are prepared in microtitre plates as described above. Fungal strains to be tested are grown and harvested in an identical manner to that described above, each organism suspension is then diluted in YAG medium to 2×10^4 cfu/ml for Aspergillus spp and other filamentous fungi and 2×10^3 cfu/ml for yeast. 80 μl of an organism suspension was added to each well of the plate containing drug dilutions. This produced MIC plates with a drug range 50-0.05 mg/L and organism inocula of 1-2×10^4 cfu/ml for Aspergillus spp and other filamentous fungi and 1-2×10^3 cfu/ml for yeasts. All plates were incubated for 24 hrs at 35° C. Growth was assessed by monitoring the optical density at 485 nm for each well. The MIC of a compound is the lowest drug concentration that inhibits growth of an organism by >70% compared with a drug free control. MICs are recorded as mg/L. In cases where the MIC of an organism is […]0.05 mg/L the MIC is repeated using a concentration range of 0.5-0.0005 mg/L. MIC tests in YAG medium have more clear-cut endpoints and have slightly lower MICS than those performed in RPMI medium.
(§6) The following organisms were tested: Aspergillus fumigatus AF293 and Aspergillus fumigatus AF210, Aspergillus niger, Aspergillus terreus, Aspergillus favus, Candida albicans, Candida krusei, Candida tropicalis, Candida glabrata, Candida parapsilosis, Trichophyton rubrum, Trichophyton mentagrophytes, Scedosporium prolificans, Scedosporium apiospermum, Absidia corymbifera, Fusarium solani.

Experiment [1] has as its system Aspergillus fumigatus AF293. The experiment can be described thus: MIC, YAG medium, Aspergillus fumigatus AF293. The conditions noted are these: YAG medium; for MIC: Aspergillus fumigatus, AF293, read-out: MIC A Fum. 293. Here is the method:
as §1, §2, §3, §4, §5, §6

A further experiment has as its system Aspergillus niger. The experiment can be described thus: MIC, YAG medium, Aspergillus niger. The conditions noted are these: YAG medium; for MIC: Aspergillus niger, read-out: MIC A Niger 1. The procedure:
as §1, §2, §3, §4, §5, §6

The test system of the next experiment is Aspergillus terreus. Put plainly: MIC, YAG medium, Aspergillus terreus. The conditions noted are these: YAG medium; for MIC: Aspergillus terreus, read-out: MIC A Terreus 4. The procedure: as §1, §2, §3, §4, §5, §6
Experiment [2] has as its system Aspergillus fumigatus AF210. Put plainly: MIC, YAG medium, Aspergillus fumigatus AF210. As to conditions: YAG medium; for MIC: Aspergillus fumigatus, AF210, read-out: MIC A Fum. 210. Here is the method: as §1, §2, §3, §4, §5, §6

Regarding `CNC(=O)C(=O)c1c(-c2ccccc2)cc2ccccn12` [Example 179, N-Methyl-2-oxo-2-(2-phenyl-indolizin-3-yl)-acetamide], the MIC with Aspergillus flavus is 25 µg/mL (≈ 89.8 µM); in experiment [1] it was 12.5 µg/mL (≈ 44.9 µM); with Aspergillus niger, greater than 50 µg/mL; in the experiment on Aspergillus terreus, 6.25 µg/mL (≈ 22.5 µM); in experiment [2], 12.5 µg/mL (≈ 44.9 µM).
`CS(=O)(=O)Nc1ccc(NC(=O)C(=O)c2c(-c3ccccc3)cc3ccccn23)cc1` [Example 219, N-(4-Methanesulfonylamino-phenyl)-2-oxo-2-(2-phenyl-indolizin-3-yl)-acetamide]: the MIC in the experiment with Aspergillus flavus was greater than 50 µg/mL; in experiment [1], 12.5 µg/mL (≈ 28.8 µM); in the experiment with Aspergillus niger, 3.1 µg/mL (≈ 7.15 µM); with Aspergillus terreus it was 6.25 µg/mL (≈ 14.4 µM); in experiment [2], 50 µg/mL (≈ 115 µM).
Take `COc1ccc(NC(=O)C(=O)c2c(-c3cccnc3)cc3ccccn23)c(OC)c1` [Example 174, N-(2,4-Dimethoxy-phenyl)-2-oxo-2-(2-pyridin-3-yl-indolizin-3-yl)-acetamide]: the minimum inhibitory concentration (MIC) in the experiment with Aspergillus flavus came to 0.1 µg/mL (≈ 0.249 µM); in experiment [1], 6.25 µg/mL (≈ 15.6 µM); in the experiment with Aspergillus niger, 1.6 µg/mL (≈ 3.99 µM); in the experiment on Aspergillus terreus, 0.2 µg/mL (≈ 0.498 µM); in experiment [2], 3.1 µg/mL (≈ 7.72 µM).
For `COc1ccc(NC(=O)C(=O)c2c(-c3ccc(F)cc3)cc3ccccn23)cn1` [Example 157, 2-[2-(4-Fluoro-phenyl)-indolizin-3-yl]-N-(6-methoxy-pyridin-3-yl)-2-oxo-acetamide], in that order: 0.1 µg/mL (≈ 0.257 µM), 6.25 µg/mL (≈ 16.1 µM), 0.1 µg/mL (≈ 0.257 µM), 0.2 µg/mL (≈ 0.514 µM) and 1.6 µg/mL (≈ 4.11 µM).
Turning to `O=C(Nc1ccncc1)C(=O)c1c(-c2ccccc2)cc2ccccn12` [Example 158, 2-Oxo-2-(2-phenyl-indolizin-3-yl)-N-pyridin-4-yl-acetamide], the MIC with Aspergillus flavus is greater than 50 µg/mL; in experiment [1] it was greater than 50 µg/mL; with Aspergillus niger, 0.4 µg/mL (≈ 1.17 µM); with Aspergillus terreus, greater than 50 µg/mL; in experiment [2] it was greater than 50 µg/mL.
Consider `CC(C)NC(=O)C(=O)c1c(-c2ccccc2)cc2ccccn12` [Example 180, N-Isopropyl-2-oxo-2-(2-phenyl-indolizin-3-yl)-acetamide], for which the MIC is greater than 50 µg/mL with Aspergillus flavus; 6.25 µg/mL (≈ 20.4 µM) in experiment [1]; 3.1 µg/mL (≈ 10.1 µM) in the experiment on Aspergillus niger; 6.25 µg/mL (≈ 20.4 µM) in the experiment with Aspergillus terreus; 6.25 µg/mL (≈ 20.4 µM) in experiment [2].
Take `COc1ccc(NC(=O)C(=O)c2c(-c3ccccc3)cc3ccc(OC)cn23)cc1` [Example 239, N-(4-Methoxy-phenyl)-2-(6-methoxy-2-phenyl-indolizin-3-yl)-2-oxo-acetamide]: the MIC in the experiment with Aspergillus flavus is 0.05 µg/mL (≈ 0.125 µM); in experiment [1] it was 50 µg/mL (≈ 125 µM); with Aspergillus niger it was 0.8 µg/mL (≈ 2 µM); in the experiment with Aspergillus terreus, 0.05 µg/mL (≈ 0.125 µM); in experiment [2], greater than 50 µg/mL.
On to `CC(C)(C#N)c1ccc(NC(=O)C(=O)c2c(-c3cccnc3)cc3ccccn23)cc1` [Example 225, N-[4-(Cyano-dimethyl-methyl)-phenyl]-2-oxo-2-(2-pyridin-3-yl-indolizin-3-yl)-acetamide], for which the MIC is 0.1 µg/mL (≈ 0.245 µM) with Aspergillus flavus; 3.1 µg/mL (≈ 7.59 µM) in experiment [1]; 3.1 µg/mL (≈ 7.59 µM) with Aspergillus niger; 0.1 µg/mL (≈ 0.245 µM) with Aspergillus terreus; 3.1 µg/mL (≈ 7.59 µM) in experiment [2].
Consider `O=C(Nc1ccccn1)C(=O)c1c(-c2ccccc2)cc2ccccn12` [Example 151, 2-Oxo-2-(2-phenyl-indolizin-3-yl)-N-pyridin-2-yl-acetamide], for which the MIC in the experiment on Aspergillus flavus is 1.6 µg/mL (≈ 4.69 µM); in experiment [1], 6.25 µg/mL (≈ 18.3 µM); with Aspergillus niger it was 0.4 µg/mL (≈ 1.17 µM); with Aspergillus terreus, 0.4 µg/mL (≈ 1.17 µM); in experiment [2] it was 6.25 µg/mL (≈ 18.3 µM).
As to `COc1cc(NC(=O)C(=O)c2c(-c3cccnc3)cc3ccccn23)cc(OC)c1OC` [Example 226, 2-Oxo-2-(2-pyridin-3-yl-indolizin-3-yl)-N-(3,4,5-trimethoxy-phenyl)-acetamide], the MIC is 1.6 µg/mL (≈ 3.71 µM) with Aspergillus flavus; greater than 50 µg/mL in experiment [1]; greater than 50 µg/mL in the experiment on Aspergillus niger; 3.1 µg/mL (≈ 7.19 µM) in the experiment on Aspergillus terreus; greater than 50 µg/mL in experiment [2].
Turning to `COc1ccc2cc(-c3ccccc3)c(C(=O)C(=O)Nc3ccc(OC)nc3)n2c1` [Example 195, 2-(6-Methoxy-2-phenyl-indolizin-3-yl)-N-(6-methoxy-pyridin-3-yl)-2-oxo-acetamide], the MIC worked out at 0.4 µg/mL (≈ 0.996 µM) with Aspergillus flavus; 6.25 µg/mL (≈ 15.6 µM) in experiment [1]; 1.6 µg/mL (≈ 3.99 µM) in the experiment on Aspergillus niger; 0.4 µg/mL (≈ 0.996 µM) in the experiment on Aspergillus terreus; 6.25 µg/mL (≈ 15.6 µM) in experiment [2].
On to `COc1ccc(NC(=O)C(=O)c2c(-c3ccco3)cc3ccccn23)c(OC)c1` [Example 169, N-(2,4-Dimethoxy-phenyl)-2-(2-furan-2-yl-indolizin-3-yl)-2-oxo-acetamide], for which the MIC in the experiment with Aspergillus flavus was found to be 0.4 µg/mL (≈ 1.02 µM); in experiment [1], 3.1 µg/mL (≈ 7.94 µM); in the experiment with Aspergillus niger, 0.4 µg/mL (≈ 1.02 µM); with Aspergillus terreus, 3.1 µg/mL (≈ 7.94 µM); in experiment [2], 6.25 µg/mL (≈ 16 µM).
On to `COc1ccc(NC(=O)C(=O)c2c(-c3ccco3)cc3ccccn23)cn1` [Example 170, 2-(2-Furan-2-yl-indolizin-3-yl)-N-(6-methoxy-pyridin-3-yl)-2-oxo-acetamide], for which the MIC was 3.1 µg/mL (≈ 8.58 µM) with Aspergillus flavus; greater than 50 µg/mL in experiment [1]; 3.1 µg/mL (≈ 8.58 µM) in the experiment with Aspergillus niger; greater than 50 µg/mL with Aspergillus terreus; greater than 50 µg/mL in experiment [2].
For `COc1ccc(NC(=O)C(=O)c2c(-c3ccccc3)cc3cccc(C)n23)cn1` [Example 189, N-(6-Methoxy-pyridin-3-yl)-2-(5-methyl-2-phenyl-indolizin-3-yl)-2-oxo-acetamide], the MIC with Aspergillus flavus stood at 3.1 µg/mL (≈ 8.04 µM); in experiment [1], 3.1 µg/mL (≈ 8.04 µM); in the experiment with Aspergillus niger, 0.8 µg/mL (≈ 2.08 µM); in the experiment with Aspergillus terreus, 1.6 µg/mL (≈ 4.15 µM); in experiment [2], 3.1 µg/mL (≈ 8.04 µM).
Regarding `O=C(Nc1cc(Cl)cc(Cl)c1)C(=O)c1c(-c2cccnc2)cc2ccccn12` [Example 227, N-(3,5-Dichloro-phenyl)-2-oxo-2-(2-pyridin-3-yl-indolizin-3-yl)-acetamide], the MIC was 0.05 µg/mL (≈ 0.122 µM) in the experiment on Aspergillus flavus; 1.6 µg/mL (≈ 3.9 µM) in experiment [1]; 1.6 µg/mL (≈ 3.9 µM) with Aspergillus niger; 0.05 µg/mL (≈ 0.122 µM) in the experiment with Aspergillus terreus; 0.8 µg/mL (≈ 1.95 µM) in experiment [2].
Turning to `COc1ccc(NC(=O)C(=O)c2c(-c3ccccc3)cc3cccc(C)n23)cc1` [Example 237, N-(4-Methoxy-phenyl)-2-(5-methyl-2-phenyl-indolizin-3-yl)-2-oxo-acetamide], the MIC in the experiment on Aspergillus flavus was 1.6 µg/mL (≈ 4.16 µM); in experiment [1], 1.6 µg/mL (≈ 4.16 µM); in the experiment with Aspergillus niger, 0.8 µg/mL (≈ 2.08 µM); in the experiment with Aspergillus terreus it was 0.4 µg/mL (≈ 1.04 µM); in experiment [2], 3.1 µg/mL (≈ 8.06 µM).
Consider “N-(3-Methyl-3H-benzoimidazol-5-yl)-2-oxo-2-(2-phenyl-indolizin-3-yl)-acetamide and N-(1-Methyl-1H-benzoimidazol-5-yl)-2-oxo-2-(2-phenyl-indolizin-3-yl)-acetamide [Example 241]”, for which the “MIC A Flavus 01” value with Aspergillus flavus is 0.8 µg/mL. For the same compound, in experiment [1], the “MIC A Fum. 293” value came to 12.5 µg/mL. For the same compound, the “MIC A Niger 1” value against Aspergillus niger amounted to 12.5 µg/mL. The “MIC A Terreus 4” value against Aspergillus terreus amounted to 12.5 µg/mL. Moreover, the “MIC A Fum. 210” value in experiment [2] was determined as 12.5 µg/mL.
Consider `COc1ccc(NC(=O)C(=O)c2c(-c3ccccn3)cc3ccccn23)cc1` [Example 163, N-(4-Methoxy-phenyl)-2-oxo-2-(2-pyridin-2-yl-indolizin-3-yl)-acetamide], for which the MIC is greater than 50 µg/mL in the experiment on Aspergillus flavus; greater than 50 µg/mL in experiment [1]; 1.6 µg/mL (≈ 4.31 µM) in the experiment with Aspergillus niger; greater than 50 µg/mL in the experiment with Aspergillus terreus; greater than 50 µg/mL in experiment [2].
